# Article PMC7289991, “Population Pharmacokinetics and Limited Sampling Strategy for Therapeutic Drug Monitoring of Polymyxin B in Chinese Patients With Multidrug-Resistant Gram-Negative Bacterial Infections” (Frontiers in Pharmacology, 2020)
# Positions of bridges follow the written chain, without caps; N, C: chain ends. Non-standard residues stand in square brackets, D forms with d. Residues, ends and D or L forms follow the SMILES beside them. *: point of attachment. X1 = CC[C@H](C)CCCCC(=O)*; Dab = NCC[C@H](N)C(=O)O
# What was measured:
# [1] = Population pharmacokinetic analysis of polymyxin B in Chinese patients (two-compartment model, Phoenix NLME); format: in vivo, human
# Method: Patients who were ≥ 18 years of age, received intravenous polymyxin B (sulfate; polymyxin B injection, Shanghai First Biochemical Pharmaceutical Co., Ltd., China) for ≥ 72 hours, and were documented MDR Gram-negative bacterial infections were included. Patients with renal replacement therapy were excluded. Demographic characteristics (age, sex, and body weight), polymyxin B therapy, and laboratory data before polymyxin B TDM were collected from electronic medical records, including alanine aminotransferase (ALT), aspartate aminotransferase (AST), glutamyl transpeptidase (GGT), alkaline phosphatase (ALP), urea nitrogen, serum creatinine (Scr), serum uric acid, serum proteins, serum albumin, total bilirubin (TBIL), direct bilirubin (DBIL), and creatinine clearance (CrCL). CrCL was calculated using the Cockcroft-Gault equation with body weight ([Janmahasatian et al., 2005]).
# According to the Chinese package insert, the maintenance dose of polymyxin B was 50 to 100 million units ([…]) twice daily. The loading dose was 100 to 150 million units in clinical practice. The recommended infusion time was one hour but could be lengthened as needed. Polymyxin B treatment including dose, infusion time, and duration of therapy depended on the medical teams.
# (§1) Blood samples were obtained after 3 days of therapy. On day 4, one blood sample (2 ml, C0h) was collected immediately at pre-dose, and five to seven blood samples (mainly C0.5h, C1h, C1.5h, C2h, C4h, C6h, and C8h) were collected at pre-next dose into EDTA tubes for each patient. To calculate AUC0–12h, C0h was regarded as C12h for those who hid not obtained C0h. All samples were centrifuged at 3,500×g for 10 min. The supernatant was collected and stored at −80°C until analysis.
# Plasma concentrations of polymyxin B were determined using liquid chromatography-tandem mass spectrometry (LC-MS/MS) in the hospital laboratory. The method was previously described by our group ([Wang et al., 2020]). […] The upper limit of quantification was extended to 20 µg/ml for polymyxin B1 and 5.0 µg/ml for polymyxin B2 after four-fold dilution. For precision and accuracy, the intra- and inter-day imprecision of polymyxin B1 and B2 was less than 13.93%, and the inaccuracy ranged from −10.87 to 11.13%. Since polymyxin B1 and B2 had similar structures, molecular weight, pharmacological activities, and pharmacokinetic characteristics, the plasma concentration of polymyxin B was summed to derive the total polymyxin B1 and B2 concentrations ([Tam et al., 2011]; [Manchandani et al., 2016a]).
# Based on a previously published study ([Avedissian et al., 2019]), the PK parameters were determined by one- and two-compartmental models performed using Phoenix® NLME software (v7.0, Pharsight, Mountain View, CA, USA). Initial PK parameters were estimated by the Naive-pooled model. PK models were estimated by the first-order conditional
# where Pi is the PK parameters of the i^th patient, θ is the population PK pharmacokinetic parameters, and ηi is a normally distributed random variable with a mean of 0 and a variance of ω^2. Intra-individual variability (residual error) is described using additive (Cobs = Cpred + ϵ), proportional [Cobs = Cpred × (1+ ϵ)] or mixed (additive + proportional) models, where Cobs and Cpred are the observed and predicted concentrations, and ϵ is an error variable with a mean of 0 and a variance of σ^2. Model assessment criteria included precision of parameter estimates (standard error), goodness-of-fit plots, and likelihood ratio test (−2LL). For the one-compartment model, basic PK parameters were the volume of central compartment distribution (V) and central compartment clearance (Cl). For the two-compartment model, there were two additional parameters as the volume of peripheral compartment distribution (V2) and inter-compartmental clearance (Q). […]
# [2] = Observed AUC0-12h at steady state (linear-up-log-down method); format: in vivo; conditions: human, 46 patients, steady state (day 4), intravenous, plasma, LC-MS/MS, mean ± spread
# Method: as §1
# Plasma concentrations of polymyxin B were determined using liquid chromatography-tandem mass spectrometry (LC-MS/MS) in the hospital laboratory. The method was previously described by our group ([Wang et al., 2020]). […] The upper limit of quantification was extended to 20 µg/ml for polymyxin B1 and 5.0 µg/ml for polymyxin B2 after four-fold dilution. For precision and accuracy, the intra- and inter-day imprecision of polymyxin B1 and B2 was less than 13.93%, and the inaccuracy ranged from −10.87 to 11.13%. […]
# The AUC0-12h of polymyxin B was calculated by the linear-up-log-down method. […] The observed and predicted AUC0-12h were analyzed using the Pearson correlation coefficient (r). […] The determination coefficient (r^2) evaluated the regression level of the equation. […]
# [3] = cited from earlier work
# Excerpt: To date, few studies have been conducted on population PK of polymyxin B ([Kwa et al., 2008]; [Sandri et al., 2013]; [Kubin et al., 2018]; [Manchandani et al., 2018]; [Miglis et al., 2018]). To our best knowledge, this study included the largest samples and most covariates from acutely-ill patients, aimed at evaluating the population PK of polymyxin B and identifying potential factors influencing the PK variability. The result indicated a two-compartment model adequately described population PK of polymyxin B in Chinese patients. Although there were studies performed using the one-compartment ... || The impact of clinical variables on population PK models of polymyxin B was always inconsistent, especially the influence of body weight and CrCL on polymyxin B clearance. […] With a low correlation coefficient (Supplementary Figure 1), this study found CrCL was a statistical covariate of polymyxin B clearance (Equ. 6), which was in agr ...
# [4] = two-compartment population PK, 46 patients, intravenous, steady state
smiles,measurement,setting,value
"CC[C@H](C)CCCCC(=O)N[C@@H](CCN)C(=O)N[C@H](C(=O)N[C@@H](CCN)C(=O)N[C@H]1CCNC(=O)[C@H]([C@@H](C)O)NC(=O)[C@H](CCN)NC(=O)[C@H](CCN)NC(=O)[C@H](CC(C)C)NC(=O)[C@@H](Cc2ccccc2)NC(=O)[C@H](CCN)NC1=O)[C@@H](C)O [polymyxin B, Polymyxin B] (X1-[Dab]T[Dab][Dab][Dab][dF]L[Dab][Dab]T; lactam 4-C)","dCldCrCL, bootstrap median","[1]; 1,000 bootstrap samples",0.357
same,"tvCl, bootstrap median","[1]; 1,000 bootstrap samples",1.771 L/h
same,"tvQ, bootstrap median","[1]; 1,000 bootstrap samples",14.427 L/h
same,"tvV2, bootstrap median","[1]; 1,000 bootstrap samples",12.073 L
same,"tvV, bootstrap median","[1]; 1,000 bootstrap samples",5.960 L
same,"tvV, typical value of volume of central compartment distribution (V), final model estimate","[1]; two-compartment population PK, 46 adult patients, 331 plasma samples, intravenous, steady state (day 4), LC-MS/MS, sum of polymyxin B1 and B2",6.218 L
same,"tvQ, typical value of inter-compartmental clearance (Q, Cl2), final model estimate",[1]; [4],13.518 L/h
same,"tvV2, typical value of volume of peripheral compartment distribution (V2), final model estimate",[1]; [4],11.922 L
same,AUC(0-t),[2],43600 ± 27700 ng·h/mL
same,"clearance value, renal insufficient group","[3]; CrCL < 80 ml/min, P = 0.06 vs normal function group, ref Thamlikitkul et al. (2017)",2.0 L/h
same,"clearance value, normal function group","[3]; CrCL ≥ 80 ml/min, ref Thamlikitkul et al. (2017)",2.5 L/h
same,polymyxin B CL reported previously (range),"[3]; earlier population PK studies, ref not given",1.87 to 2.5 L/h
same,V estimate,[3]; ref Sandri et al. (2013),6.35 L
